Consider 18 compounds from US11161856B2 (H. Lundbeck A/S, priority 2017, dated 2021).

Holding throughout (type): biochemical
Assay [1] deals with T1, MAGL (Homo sapiens, UniProt Q99685).
T1 construct: Proteomes (human prefrontal cortex or cell membrane fractions); from tissue
T1 sequence (Q99685 1-303): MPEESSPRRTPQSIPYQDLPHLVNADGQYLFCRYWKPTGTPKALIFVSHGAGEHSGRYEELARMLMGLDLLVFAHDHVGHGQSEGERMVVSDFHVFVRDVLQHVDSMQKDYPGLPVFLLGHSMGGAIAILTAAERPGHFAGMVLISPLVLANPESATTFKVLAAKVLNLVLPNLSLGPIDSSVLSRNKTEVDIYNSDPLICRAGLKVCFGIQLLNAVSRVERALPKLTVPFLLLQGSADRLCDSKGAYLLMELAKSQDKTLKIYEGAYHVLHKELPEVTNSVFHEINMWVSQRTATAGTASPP
Description: In vitro competitive activity-based protein profiling (FP-Rh or HT-01 probe, gel-based). Also on record: IC50 MGLL PC3 (Human, μM) / IC50 MGLL PFC (Human, μM): scale not given here. As for the experimental part: (§1) In Vitro Competitive Activity-Based Protein Profiling.
(§2) Proteomes (human prefrontal cortex or cell membrane fractions) (50 μL, 1.0 mg/mL total protein concentration) were preincubated with varying concentrations of inhibitors at 37° C. After 30 min, FP-Rh or HT-01 (1.0 μL, 50 μM in DMSO) was added and the mixture was incubated for another 30 min at room temperature. Reactions were quenched with SDS loading buffer (15 μL-4×) and run on SDS-PAGE.

Assay [2] concerns the target T2, MGLL (Mus musculus, UniProt O35678).
T2 construct: Brain; from tissue; host or cells: mouse brain proteome
T2 sequence (O35678 1-303): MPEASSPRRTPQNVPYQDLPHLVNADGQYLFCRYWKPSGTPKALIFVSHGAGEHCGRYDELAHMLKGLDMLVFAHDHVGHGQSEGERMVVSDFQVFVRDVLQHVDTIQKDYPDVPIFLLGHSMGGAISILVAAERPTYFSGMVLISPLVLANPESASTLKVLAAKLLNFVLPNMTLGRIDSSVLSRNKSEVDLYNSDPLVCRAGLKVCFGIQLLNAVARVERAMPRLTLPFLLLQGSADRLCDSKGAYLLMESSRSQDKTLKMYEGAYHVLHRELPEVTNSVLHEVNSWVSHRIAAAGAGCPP
Description: In vitro competitive activity-based protein profiling, mouse brain proteome (MGLL). The settings on record: for % Inh MGLL Brain (Mouse, μM): concentration not given (μM). Also on record: IC50 MGLL Brain (Mouse, μM): scale not given here.

Assay [3] concerns the target T3, ABHD6 (Mus musculus, UniProt Q8R2Y0).
T3 construct: Brain; from tissue; host or cells: mouse brain proteome
T3 sequence (Q8R2Y0 1-336): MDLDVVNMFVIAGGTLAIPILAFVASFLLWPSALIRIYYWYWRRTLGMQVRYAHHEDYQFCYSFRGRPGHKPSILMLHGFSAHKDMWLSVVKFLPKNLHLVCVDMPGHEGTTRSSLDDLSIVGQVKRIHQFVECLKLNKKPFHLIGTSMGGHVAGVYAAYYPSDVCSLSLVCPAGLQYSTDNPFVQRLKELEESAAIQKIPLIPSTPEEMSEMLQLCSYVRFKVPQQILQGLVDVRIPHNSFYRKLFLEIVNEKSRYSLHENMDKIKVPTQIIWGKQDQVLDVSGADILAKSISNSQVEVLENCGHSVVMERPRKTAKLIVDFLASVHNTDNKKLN
Description: In vitro competitive activity-based protein profiling, mouse brain proteome (ABHD6). The settings on record: for % Inh ABHD6 Brain (Mouse, μM): mouse brain proteome, concentration not given (μM). The procedure: [The source words this procedure for another target and reports this target under the same test.] as §1, §2

Regarding `O=C(O)C1CCCN1C1CCN(c2cc(C(F)(F)F)ccc2CN2CCCC23CCN(C(=O)OC(C(F)(F)F)C(F)(F)F)CC3)CC1` (stereo not shown) [Example 159], the “% Inh MGLL PC3 (Human, μM)” value in assay [1] (PC3 cell proteome, concentration not given (μM)) is “### (### is ≥75%)”. Further, the half-maximal inhibitory concentration (IC50) in assay [1] (prefrontal cortex (PFC) proteome, read-out: IC50 MGLL PFC (Human)) was less than 100 nM. In addition, in assay [2], the “% Inh MGLL Brain (Mouse, μM)” value is given as “### (### is ≥75%)”. The “% Inh ABHD6 Brain (Mouse, μM)” value in assay [3] is “# (# is ≤25%)”.
Consider `O=C(O)CN1CC2CC1CN2c1cc(C(F)(F)F)ccc1CN1CCCC12CCN(C(=O)OC(C(F)(F)F)C(F)(F)F)CC2` (stereo not shown) [Example 6], for which, in assay [1] (PC3 cell proteome), the “IC50 MGLL PC3 (Human, μM)” value was “* * *”. Moreover, the “IC50 MGLL PFC (Human, μM)” value in assay [1] (prefrontal cortex (PFC) proteome) is on record as “* * *”.
In the case of `CN(Cc1ccc(C(F)(F)F)cc1N1CCC(C(=O)O)C1)C1(C)CCN(C(=O)OC(C(F)(F)F)C(F)(F)F)CC1` (stereo not drawn) [Example 118, l-(2-(((1-(((1,1,1,3,3,3-Hexailuoropropan-2-yl)oxy)carbonyl)-4-methylpiperidin-4-yl)(methyl)amino)methyl)-5-(trifluoromethyl)phenyl)pyrrolidine-3-carboxylic acid], the “% Inh MGLL PFC (Human, μM)” value in assay [1] (prefrontal cortex (PFC) proteome, concentration not given (μM)) was “### (### is ≥75%)”. Moreover, in assay [3], the “% Inh ABHD6 Brain (Mouse, μM)” value is “## (## is between 25 and 75%)”.
With `O=C(OC(C(F)(F)F)C(F)(F)F)N1CCC2(CC1)CN(Cc1c(Cl)cccc1N1CCN(C3CC3)CC1)C2` [Example 58, 1,1,1,3,3,3-Hexafluoropropan-2-yl 2-(2-chloro-6-(4-cyclopropvlpiperazin-1-yl)benzyl)-2,7-diazaspiro[3.5]nonane-7-carboxylate], the “% Inh MGLL Brain (Mouse, μM)” value in assay [2] is “### (### is ≥75%)”. The “% Inh ABHD6 Brain (Mouse, μM)” value in assay [3] is reported as “### (### is ≥75%)”.
As for `CS(=O)(=O)N1CCC2(CCN(c3cc(C(F)(F)F)ccc3CN3CCN(C(=O)OC(C(F)(F)F)C(F)(F)F)CC3)C2)CC1` [Example 196, 1,1,1,3,3,3-Hexafluoropropan-2-yl 4-(2-(8-(methylsulfonyl)-2,8-diazaspiro[4.5]decan-2-yl)-4-(trifluoromcthyl)benzyl)pipera zinc-1-carboxylate], the “% Inh MGLL Brain (Mouse, μM)” value in assay [2] is “### (### is ≥75%)”. In assay [3], the “% Inh ABHD6 Brain (Mouse, μM)” value is “# (# is ≤25%)”.
For the compound `O=C(OC(C(F)(F)F)C(F)(F)F)N1CC2(CCN(Cc3ccc(N4CCCC4)cc3)CC2)C1` [Example 17, 1,1,1,3,3,3-hexafluoropropan-2-yl 7-(4-(pyrrolidin-1-yl)benzyl)-2,7-diazaspiro[3.5]nonane-2-carboxylate], in assay [2], the “% Inh MGLL Brain (Mouse, μM)” value is given as “### (### is ≥75%)”. In addition, the “% Inh ABHD6 Brain (Mouse, μM)” value in assay [3] is “### (### is ≥75%)”.
Regarding `O=C(OC(C(F)(F)F)C(F)(F)F)N1CCC2(CC1)CN(Cc1cccc(Oc3ccccc3)c1)C2` [Example 78, 1,1,1,3,3,3-Hexafluoropropan-2-yl 2-(3-phenoxybenzyl)-2,7-diazaspiro[3.5]nonane-7-carboxylate], in assay [2], the “% Inh MGLL Brain (Mouse, μM)” value is on record as “### (### is ≥75%)”. Further, the “% Inh ABHD6 Brain (Mouse, μM)” value in assay [3] was “### (### is ≥75%)”.
Regarding `Cc1cc(-c2ccccc2)ccc1CN1CCC2(CC1)CN(C(=O)OC(C(F)(F)F)C(F)(F)F)C2` [Example 19, 1,1,1,3,3,3-Hexafluoropropan-2-yl 7-((3-methyl-[1,1′-biphenyl]-4-yl)methyl)-2,7-diazaspiro[3.5]nonane-2-carboxylate], in assay [2], the “% Inh MGLL Brain (Mouse, μM)” value is “## (## is between 25 and 75%)”. In addition, in assay [3], the “% Inh ABHD6 Brain (Mouse, μM)” value is listed as “### (### is ≥75%)”.
As for `CS(=O)(=O)N1CCCC12CCN(c1cc(Cl)ccc1CN1CCN(C(=O)OC(C(F)(F)F)C(F)(F)F)CC1)CC2` [Example 205, 1,1,1,3,3,3-Hexafluoropropan-2-yl 4-(4-chloro-2-(l-(methylsulfonyl)-1,8-diazaspiro[4.5]decan-8-yl)benzyl)piperazine-l-carboxylate], the “% Inh MGLL Brain (Mouse, μM)” value in assay [2] was “### (### is ≥75%)”. For the same compound, in assay [3], the “% Inh ABHD6 Brain (Mouse, μM)” value is “## (## is between 25 and 75%)”.
As to `CC(=O)N1CCN(c2cccc(C(F)(F)F)c2CN2CC3(CCN(C(=O)OC(C(F)(F)F)C(F)(F)F)CC3)C2)CC1` [Example 59, 1,1,1,3,3,3-Hexafluoropropan-2-yl 2-(2-(4-acetylpiperazin-1-yl)-6-(trifluoromethyl)benzyl)-2,7-diazaspiro[3.5]nonane-7-carboxylate], the “% Inh MGLL Brain (Mouse, μM)” value in assay [2] was “### (### is ≥75%)”. Moreover, the “% Inh ABHD6 Brain (Mouse, μM)” value in assay [3] is “### (### is ≥75%)”.
For `CC(=O)N1CCN(c2cccc(Cl)c2CN2CC3(CCN(C(=O)OC(C(F)(F)F)C(F)(F)F)CC3)C2)CC1` [Example 49, 1,1,1,3,3,3-Hexafluoropropan-2-yl 2-(2-(4-acetylpiperazin-1-yl)-6-chlorobenzyl)-2,7-diazaspiro[3.5]nonane-7-carboxylate], in assay [2], the “% Inh MGLL Brain (Mouse, μM)” value is reported as “### (### is ≥75%)”. Moreover, in assay [3], the “% Inh ABHD6 Brain (Mouse, μM)” value is reported as “### (### is ≥75%)”.
As to `CS(=O)(=O)N1CC2(CCN(c3cc(Cl)ccc3CN3CCN(C(=O)OC(C(F)(F)F)C(F)(F)F)CC3)C2)C1` [Example 175, 1,1,1,3,3,3-Hexafluoropropan-2-yl 4-(4-chloro-2-(2-(methylsulfonyl)-2,6-diazaspiro[3.4]octan-6-yl)benzyl)piperazine-1-carboxylate], the “% Inh MGLL Brain (Mouse, μM)” value in assay [2] is recorded as “### (### is ≥75%)”. The “% Inh ABHD6 Brain (Mouse, μM)” value in assay [3] is “# (# is ≤25%)”.
`CCN1CCN(c2cccc(Cl)c2CN2CC3(CCN(C(=O)OC(C(F)(F)F)C(F)(F)F)CC3)C2)CC1` [Example 50, 1,1,1,3,3,3-Hexafluoropropan-2-yl 2-(2-chloro-6-(4-ethylpiperazin-1-yl)benzyl)-2,7-diazaspiro[3.5]nonane-7-carboxylate]: the “% Inh MGLL Brain (Mouse, μM)” value in assay [2] is “### (### is ≥75%)”. For the same compound, the “% Inh ABHD6 Brain (Mouse, μM)” value in assay [3] is recorded as “### (### is ≥75%)”.
Consider `O=C(OC(C(F)(F)F)C(F)(F)F)N1CCC2(CC1)CN(Cc1c(N3CCCCC3)cccc1C(F)(F)F)C2` [Example 41, 1,1,1,3,3,3-Hexafluoropropan-2-yl 2-(2-(piperidin-1-yl)-6-(trifluoromethyl)benzyl)-2,7-diazaspiro[3.5]nonane-7-carboxylate], for which the “% Inh MGLL Brain (Mouse, μM)” value in assay [2] is “### (### is ≥75%)”. The “% Inh ABHD6 Brain (Mouse, μM)” value in assay [3] was “## (## is between 25 and 75%)”. This compound also registered an IC50 in assay [3] (mouse proteome) of 100 to 1000 nM.
Turning to `O=C(OC(C(F)(F)F)C(F)(F)F)N1CCC2(CC1)CN(Cc1ccc(Cl)cc1N1CCCCC1)C2` [Example 38, 1,1,1,3,33-Hexafluoropropan-2-yl 2-(4-chloro-2-(piperidin-1-yl)benzyl)-2,7-diazaspiro[3.5]nonane-7-carboxylate], the “% Inh MGLL Brain (Mouse, μM)” value in assay [2] is “### (### is ≥75%)”. The “% Inh ABHD6 Brain (Mouse, μM)” value in assay [3] is “## (## is between 25 and 75%)”.
`CC(=O)N1CCC2(CC1)CCN(c1cc(Cl)ccc1CN1CCN(C(=O)OC(C(F)(F)F)C(F)(F)F)CC1)C2` [Example 29, 1,1,1,3,3,3-Hexafluoropropan-2-yl 4-(2-(8-acetyl-2,8-diazaspiro[4.5]decan-2-yl)-4-chlorobenzyl)piperazine-1-carboxylate]: in assay [2], the “IC50 MGLL Brain (Mouse, μM)” value was “* * *” and the “% Inh MGLL Brain (Mouse, μM)” value is reported as “### (### is ≥75%)”. Moreover, in assay [3], the “% Inh ABHD6 Brain (Mouse, μM)” value was “# (# is ≤25%)”.
As for `O=C(OC(C(F)(F)F)C(F)(F)F)N1CCC2(CC1)CN(Cc1ccc(Cl)c(Cl)c1)C2` [Example 67, 1,1,1,3,3,3-Hexafluoropropan-2-yl 2-(3,4-dichlorobenzyl)-2,7-diazaspiro[3,5]nonane-7-carboxylate], in assay [2], the “% Inh MGLL Brain (Mouse, μM)” value is given as “### (### is ≥75%)”. Also, the “% Inh ABHD6 Brain (Mouse, μM)” value in assay [3] is given as “### (### is ≥75%)”.
With `O=C(OC(C(F)(F)F)C(F)(F)F)N1CCC2(CCN(Cc3ccc(C(F)(F)F)cc3N3CC4COCC4C3)CC2)C1` (stereo not shown) [Example 188, 1,1,1,3,3,3-Hexafluoropropan-2-yl 8-(2-(tetrahydro-1H-furo[3,4-c]pyrrol-5(3H)-yl)-4-(trifluoromethyl)benzyl)-2,8-diazaspiro[4.5]decane-2-carboxylate], the “% Inh MGLL Brain (Mouse, μM)” value in assay [2] is given as “### (### is ≥75%)”. Besides, the “% Inh ABHD6 Brain (Mouse, μM)” value in assay [3] was “# (# is ≤25%)”.

What is called IC50 is the point on the concentration scale where inhibition reaches its midpoint.
